Residue numbers refer to the chain shown, from its start.
What was measured:
Hsp60 [1] = biological target: T1, Hsp60 (Homo sapiens, UniProt P10809); test: SPR on immobilized Hsp60; type: binding
T1 construct: purchased Tebu-Bio
Experimental: Conversely, no affinity of the diterpene towards Hsp60 was observed (Fig. 2c).
SPR analyses were carried out on a BIACORE 3000 instrument (GE-Healthcare). PPARα, PPARγ, PPARδ and HSP60 surfaces were prepared on research−grade CM5 sensor chips (GE Healthcare). Proteins (100 μg/ml in 10 mM CH3COONa, pH 5.0) were immobilized using a standard amine−coupling protocol, to obtain densities of 3–5 kRU. Testing compounds were dissolved in 100% DMSO to obtain 4 mM solutions, and then diluted in PBS containing variable amounts of DMSO, achieving a final DMSO concentration of 0.1%. For each molecule a five−point concentration series (25 nM, 65 nM, 150 nM, 400 nM, 1 μM) was set up. SPR experiments and data elaboration were carried out as reported elsewhere.

wild-type PPARγ1 = biological target: T2, wild-type PPARγ1 (Homo sapiens, UniProt P37231); test: PPRE-luciferase transactivation in HEK293T cells co-transfected with wild-type PPARγ1; type: cell-based; conditions: wild type receptor, 24 h
T2 construct: expressed in transfected cells; host or cells: HEK293T (transient); vectors from Takuma Shiraki
T2 sequence (P37231 1-477 isoform P37231-2): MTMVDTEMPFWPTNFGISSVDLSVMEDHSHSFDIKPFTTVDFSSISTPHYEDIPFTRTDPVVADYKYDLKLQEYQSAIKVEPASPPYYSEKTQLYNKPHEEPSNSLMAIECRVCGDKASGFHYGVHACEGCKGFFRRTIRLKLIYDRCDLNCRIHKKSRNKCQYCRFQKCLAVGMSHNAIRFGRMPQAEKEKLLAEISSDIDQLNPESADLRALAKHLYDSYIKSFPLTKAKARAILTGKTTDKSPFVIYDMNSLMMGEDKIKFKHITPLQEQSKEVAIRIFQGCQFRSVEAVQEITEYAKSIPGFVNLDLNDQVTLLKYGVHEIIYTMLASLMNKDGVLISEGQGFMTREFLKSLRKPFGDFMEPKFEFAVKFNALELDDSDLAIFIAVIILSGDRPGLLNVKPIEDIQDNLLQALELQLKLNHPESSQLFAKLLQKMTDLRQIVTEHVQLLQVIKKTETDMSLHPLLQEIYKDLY
Description: Luciferase activity is reported as fold-induction after normalization to β-galactosidase activity used as control for transfection efficiency. […] (b) Human HEK293T cells were co-transfected with the PPRE-luciferase reporter gene and the wild-type PPARγ1 or its mutant version (C285A). […] Luciferase activity is reported as fold-induction after normalization to β-galactosidase activity used as control for transfection efficiency.
To this goal we transiently transfected basal HEK293T cells with the PPRE-TK-luciferase-reporter plasmid along with the expression vector for the wild-type PPARγ1 or the mutant version carrying the C285A substitution.
HEK293 cells that stably express an exogenous Flag-tagged PPARγ from a transfected PCDNA-3 vector carrying a complete PPARγ cDNA were used for transfection experiments. The PPRE-Luc plasmid contains a luciferase reporter gene under the transcriptional control of three copies of the PPRE (Peroxisome Proliferator Response Element) derived from Acyl-CoA oxidase gene fused upstream to the herpes simplex thymidine kinase (TK) promoter, as described. The RSV-βGal plasmid, expressing β-galactosidase gene, driven by the strong Rous Sarcoma Virus (RSV) promoter/cassette was used as an internal control for transfection efficiency. Transient transfection assays were carried out as described in ref. [44]. […]

Hsp60 [2] = biological target: T1, Hsp60; test: MS-based peptide mapping of Hsp60 incubated with 1; conditions: trypsin digestion, LC-MS/MS
Experimental: PPARγ-LBD and Hsp60 were incubated with a 2:1 molar excess of 1 under stirring for 15 min in PBS at 37 °C. Eluted proteins were loaded on a mono-dimensional 12% SDS-PAGE, stained with Brilliant Blue G-Colloidal, reduced, and digested by trypsin. The resulting fragments were extracted and analyzed by LC-MS/MS using the same instrument and protocol described before. Peptide identification was performed by MS and MS/MS data using Mascot (Matrix Science) to interrogate the Swiss Prot non-redundant protein database.

PPARγ1 C285A mutant = biological target: T3, PPARγ1 C285A mutant (Homo sapiens, UniProt P37231, C313A); test: PPRE-luciferase transactivation in HEK293T cells co-transfected with PPARγ1 C285A mutant; type: cell-based; conditions: C285A mutant versus wild type receptor, 24 h
T3 construct: expressed in transfected cells; host or cells: HEK293T (transient); vectors from Takuma Shiraki
T3 sequence (P37231 1-477 isoform P37231-2 C285A): T2 sequence (P37231 1-477 isoform P37231-2) with C285A
Description: (b) Human HEK293T cells were co-transfected with the PPRE-luciferase reporter gene and the wild-type PPARγ1 or its mutant version (C285A).
HEK293 cells that stably express an exogenous Flag-tagged PPARγ from a transfected PCDNA-3 vector carrying a complete PPARγ cDNA were used for transfection experiments. The PPRE-Luc plasmid contains a luciferase reporter gene under the transcriptional control of three copies of the PPRE (Peroxisome Proliferator Response Element) derived from Acyl-CoA oxidase gene fused upstream to the herpes simplex thymidine kinase (TK) promoter, as described. […] Transient transfection assays were carried out as described in ref. [44]. […] In this case, the experiments were carried out into basal HEK293T cells and the RSV-β-Gal plasmid was used as control for transfection efficiency. […] The wild type and mutant PPARγ containing expression vectors were kindly provided by Dott. Takuma Shiraki. At least three independent experiments were performed for each transfection carried out in duplicate. Luciferase activity was normalized to β-galactosidase activity and reported as fold-induction.

T1 sequence (P10809 27-573): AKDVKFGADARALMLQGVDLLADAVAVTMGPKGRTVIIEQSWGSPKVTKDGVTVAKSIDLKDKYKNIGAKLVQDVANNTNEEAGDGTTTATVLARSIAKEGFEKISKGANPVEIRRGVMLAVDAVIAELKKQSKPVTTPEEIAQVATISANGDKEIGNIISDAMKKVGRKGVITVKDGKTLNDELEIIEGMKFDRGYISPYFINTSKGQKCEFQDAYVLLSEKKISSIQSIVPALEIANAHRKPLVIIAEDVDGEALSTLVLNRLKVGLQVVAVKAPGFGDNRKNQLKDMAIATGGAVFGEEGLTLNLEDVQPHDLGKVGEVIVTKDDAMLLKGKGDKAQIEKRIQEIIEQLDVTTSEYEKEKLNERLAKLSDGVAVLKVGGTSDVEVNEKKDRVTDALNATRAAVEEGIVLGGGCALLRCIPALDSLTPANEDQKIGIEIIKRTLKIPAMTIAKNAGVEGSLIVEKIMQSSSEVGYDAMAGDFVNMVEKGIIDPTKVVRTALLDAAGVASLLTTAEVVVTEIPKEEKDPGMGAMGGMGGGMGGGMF

SMILES: C=C1C(=O)C23CCC4C(C(=O)OC)CC(O)CC4(C)C2CCC1C3 (stereo not shown) [Compound 1, 15-ketoatractyligenin methyl ester]
- affinity towards Hsp60 (Hsp60 [1]): no affinity
- luciferase activity less than Rosiglitazone (wild-type PPARγ1): 40%
- covalent modification of Hsp60 (Hsp60 [2]): no peptide covalently modified
- luciferase activity with C285A mutant (PPARγ1 C285A mutant): even lower luciferase activity
